The values that follow come from US20250212889A1, “COMPOSITION CONTAINING BACILLUS AMYLOLIQUEFACIENS STRAIN FOR ENHANCING PLANT DISEASE RESISTANCE AND USE THEREOF” (CJ CHEILJEDANG CORPORATION, priority 2022, published 2025).

The structures appear in SMILES notation.

Holding throughout (assay type): in vivo
The test system of data set [1] is Phytophthora sojae. As to the kind of experiment: Mixed treatment pot experiment, soybean Phytophthora stem and root rot. The settings on record: soybeans, valine 0.05% in mixed treatment, compared to the untreated group.
Data set [2] relates to Pseudomonas syringae pv. lachrymans. Kind of data set: Mixed treatment pot experiment, cucumber bacterial leaf blight. The settings on record: cucumbers, valine 0.05% in mixed treatment, compared to the untreated group.
The test system of data set [3] is Phytophthora sojae. Kind of data set: Mixed treatment glass greenhouse experiment, soybean Phytophthora stem and root rot. The settings on record: soybeans, compared to the untreated group. As to the method:
The subject of the experiment was soybeans. Plant preparation, treatment with […] powder preparation and valine, and treatment of soybean Phytophthora stem and root rot were performed in the same manner as Example 7. […] The control value was calculated as follows. [formula]

Data set [4] deals with Pseudomonas syringae pv. tomato DC3000. As to the kind of experiment: Induced resistance, population of pathogens in Arabidopsis thaliana leaves. The settings on record: Arabidopsis thaliana leaf disc, root zone treatment, 3 days after Pst inoculation. As to the method:
To this end, Arabidopsis thaliana which is a plant model was used, and Pseudomonas syringae pv. tomato DC3000 (hereinafter, referred to as Pst) causing leaf spot was used as a pathogen. To grow the plant, the surface of seeds of Arabidopsis thaliana was sterilized by immersing the seeds in 3% sodium hypochlorite (NaOCI) for 5 minutes. Thereafter, the seeds were rinsed five times using sterile water and then sown in a pot, and cultured in a plant incubator (12-hour light and 23° C. temperature conditions) for 3 weeks, followed by root zone treatment with each 50 ml of benzothiadiazole (BTH), serenade, N351 strain, valine, and mixture of N351 strain and valine. 7 days after treatment, the pathogen was inoculated and the population of pathogens was examined 0 day and 3 days later. To examine the population of pathogens, the leaves were cut into 1 cm discs using a cork borer and placed in an e-tube containing 1 ml of sterile water and beads. The leaves were ground for 2 minutes at 6000 rpm using a homogenizer (Bertin), and the population of pathogens in the juice was examined.

Data set [5] has as its system Pathogenesis-related protein (PR) 1a promoter GUS fusion construct. As to the kind of experiment: Induced resistance, PR1a promoter GUS expression. The settings on record: Arabidopsis thaliana leaves, 0 to 3 days after disease treatment.
Another data set has as its system soybeans. Kind of data set: Growth promoting ability, shoot weight of soybeans. The method, then:
(§1) One week after sowing in pots, root zone treatment of each plant was performed using each 5 ml of BTH, valine, […] powder preparation, and the mixture of […] powder preparation and valine. The root zone treatment with BTH, valine, […] powder preparation, and the mixture of […] powder preparation and valine was performed twice at one week intervals, respectively. One week after the last treatment, a shoot of each treatment group was cut and weighed.

For another data set, the system named is cucumbers. As to the kind of experiment: Growth promoting ability, shoot weight of cucumbers. The method, then: as §1
The mark [6] stands for this setting: root zone treatment 5 ml twice, one week after last treatment.

Regarding `CC(C)[C@H](N)C(=O)O` [valine], the control value in the data set with Phytophthora sojae [1] was found to be 36%; in data set [2], 38%; in the data set with Phytophthora sojae [3], 24%. The population of pathogens in data set [4] is on record as 8 LogCFU/disc. In data set [5], the “GUS activity/expression (PR1a)” value is “most strongly induced 1 day after disease treatment, and expression became weaker over time”. Also, the figures for the “shoot weight, average” value with soybeans (setting [6]) and in the data set on cucumbers (setting [6]) were 9.3 g and 14 g, respectively. Besides, the results for the “growth further promoted compared to the untreated group” value in the data set with soybeans (vs untreated group of 8.2 g) and in the data set on cucumbers (vs untreated group of 12.6 g) were 1.1 g and 1.4 g, respectively.

In the case of `CSC(=O)c1cccc2nnsc12` [BTH, benzo (1,2,3)-thiadiazile-7-carbothioic acid S-methyl ester, reference compound], the “growth compared to the untreated control group” value in the data set with soybeans is “rather inhibited”; in the data set on cucumbers it was “growth inhibition”.
